Test results taken from ChEMBL document CHEMBL1201862, “PubChem BioAssay data set” (2004).
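96-well plates; 48 h exposure; 5 concentrations. Endpoints by linear interpolation between flanking doses. Not reached: highest tested concentration assigned. GI50 = concentration required for 50% inhibition of growth.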 Active and inactive are the calls of the source. Cut-off read from the data, not from the text of the source: active = GI50 up to about 1.1 µM and inactive = higher.

Legend:
Test in all cases: growth of human tumour cells (NCI), 48 h
NCI-H23 = system: NCI-H23
NCI-H522 = system: NCI-H522
RPMI-8226 = system: RPMI-8226
UACC-257 = system: UACC-257
COLO 205 = system: COLO 205
MDA-MB-231 = system: MDA-MB-231
BT-549 = system: BT-549
RXF 393 = system: RXF 393
SW-620 = system: SW-620
SK-MEL-28 = system: SK-MEL-28
UO-31 = system: UO-31
HOP-62 = system: HOP-62
A498 = system: A498
OVCAR-8 = system: OVCAR-8
SF-539 = system: SF-539
HL-60 = system: HL-60
SF-268 = system: SF-268
HOP-92 = system: HOP-92
DU-145 = system: DU-145
Hs-578T = system: Hs-578T
OVCAR-3 = system: OVCAR-3
Malme-3M = system: Malme-3M
MCF7 = system: MCF7
SK-OV-3 = system: SK-OV-3
EKVX = system: EKVX
SF-295 = system: SF-295
SR = system: SR
HT-29 = system: HT-29
MOLT-4 = system: MOLT-4
ACHN = system: ACHN
SN12C = system: SN12C
A549 = system: A549
HCT-116 = system: HCT-116
UACC-62 = system: UACC-62
LOX IMVI = system: LOX IMVI
T47D = system: T47D
OVCAR-4 = system: OVCAR-4
IGROV-1 = system: IGROV-1
SK-MEL-2 = system: SK-MEL-2
HCT-15 = system: HCT-15
NCI-H226 = system: NCI-H226
SNB-75 = system: SNB-75
SK-MEL-5 = system: SK-MEL-5
KM12 = system: KM12
U-251 = system: U-251
NCI-H460 = system: NCI-H460
SNB-19 = system: SNB-19
K562 = system: K562
NCI/ADR-RES = system: NCI/ADR-RES
PC-3 = system: PC-3
TK-10 = system: TK-10
MDA-N = system: MDA-N
786-0 = system: 786-0
CAKI-1 = system: CAKI-1
M14 = system: M14
OVCAR-5 = system: OVCAR-5
MDA-MB-435 = system: MDA-MB-435
HCC 2998 = system: HCC 2998
CCRF-CEM = system: CCRF-CEM

With `Cc1cc2sc(C)[n+](CCCOS(=O)(=O)[O-])c2cc1C` the GI50 (NCI-H23) was > 100 µM (inactive), the GI50 (NCI-H522) was 40.6 µM (inactive) and the GI50 (RPMI-8226) was 53 µM (inactive). For the same compound, the GI50 (UACC-257) was > 100 µM (inactive), the GI50 (COLO 205) was > 100 µM (inactive) and the GI50 (MDA-MB-231) was > 100 µM (inactive). For the same compound, the GI50 (BT-549) was > 100 µM (inactive), the GI50 (RXF 393) was > 100 µM (inactive) and the GI50 (SW-620) was > 100 µM (inactive). The GI50 (SK-MEL-28) was > 100 µM (inactive), the GI50 (UO-31) was > 100 µM (inactive) and the GI50 (HOP-62) was > 100 µM (inactive). For the same compound, the GI50 (A498) was > 100 µM (inactive), the GI50 (OVCAR-8) was > 100 µM (inactive) and the GI50 (SF-539) was > 100 µM (inactive). The GI50 (HL-60) was > 100 µM (inactive), the GI50 (SF-268) was 62.5 µM (inactive) and the GI50 (HOP-92) was > 100 µM (inactive). For the same compound, the GI50 (DU-145) was > 100 µM (inactive), the GI50 (Hs-578T) was 27.9 µM (inactive) and the GI50 (OVCAR-3) was > 100 µM (inactive). For the same compound, the GI50 (Malme-3M) was 79.6 µM (inactive), the GI50 (MCF7) was 60.8 µM (inactive) and the GI50 (SK-OV-3) was > 100 µM (inactive). For the same compound, the GI50 (EKVX) was > 100 µM (inactive), the GI50 (SF-295) was > 100 µM (inactive) and the GI50 (SR) was 66.2 µM (inactive). The GI50 (HT-29) was > 100 µM (inactive), the GI50 (MOLT-4) was 72.4 µM (inactive) and the GI50 (ACHN) was > 100 µM (inactive). The GI50 (SN12C) was > 100 µM (inactive), the GI50 (A549) was > 100 µM (inactive) and the GI50 (HCT-116) was > 100 µM (inactive). For the same compound, the GI50 (UACC-62) was > 100 µM (inactive), the GI50 (LOX IMVI) was > 100 µM (inactive) and the GI50 (T47D) was 58.6 µM (inactive). The GI50 (OVCAR-4) was > 100 µM (inactive), the GI50 (IGROV-1) was > 100 µM (inactive) and the GI50 (SK-MEL-2) was > 100 µM (inactive). The GI50 (HCT-15) was > 100 µM, the GI50 (NCI-H226) was > 100 µM (inactive) and the GI50 (SNB-75) was > 100 µM (inactive). For the same compound, the GI50 (SK-MEL-5) was > 100 µM (inactive), the GI50 (KM12) was > 100 µM (inactive) and the GI50 (U-251) was > 100 µM (inactive). For the same compound, the GI50 (NCI-H460) was > 100 µM (inactive), the GI50 (SNB-19) was > 100 µM (inactive) and the GI50 (K562) was 63.4 µM (inactive). The GI50 (NCI/ADR-RES) was > 100 µM (inactive), the GI50 (PC-3) was > 100 µM (inactive) and the GI50 (TK-10) was > 100 µM (inactive). The GI50 (MDA-N) was > 100 µM (inactive), the GI50 (786-0) was > 100 µM (inactive) and the GI50 (CAKI-1) was > 100 µM (inactive). The GI50 (M14) was > 100 µM (inactive), the GI50 (OVCAR-5) was > 100 µM (inactive) and the GI50 (MDA-MB-435) was > 100 µM (inactive).
`COC(=O)/C=C(\S/C(=N\n1cc(C(=O)OC)c(C(=O)OC)c1-c1ccc(C)cc1)c1ccc(C)cc1)C(=O)OC` was tested, and the GI50 (NCI-H23) was 5.62 µM (inactive), the GI50 (NCI-H522) was 1.67 µM (inactive) and the GI50 (RPMI-8226) was 1.44 µM (inactive). For the same compound, the GI50 (UACC-257) was 4.72 µM (inactive), the GI50 (COLO 205) was 2.45 µM (inactive) and the GI50 (MDA-MB-231) was 5.25 µM (inactive). For the same compound, the GI50 (BT-549) was 7.23 µM (inactive), the GI50 (RXF 393) was 5.47 µM (inactive) and the GI50 (HCC 2998) was 18.7 µM (inactive). For the same compound, the GI50 (SW-620) was 1.77 µM (inactive), the GI50 (SK-MEL-28) was 5.78 µM (inactive) and the GI50 (UO-31) was 2.52 µM (inactive). For the same compound, the GI50 (HOP-62) was 16.9 µM (inactive), the GI50 (A498) was 12.8 µM (inactive) and the GI50 (OVCAR-8) was 12.9 µM (inactive). The GI50 (SF-539) was 17.9 µM (inactive), the GI50 (HL-60) was 4.62 µM (inactive) and the GI50 (SF-268) was 16.1 µM (inactive). The GI50 (HOP-92) was 2.8 µM (inactive), the GI50 (DU-145) was 6.78 µM (inactive) and the GI50 (Hs-578T) was 18.4 µM (inactive). For the same compound, the GI50 (OVCAR-3) was 4.67 µM (inactive), the GI50 (Malme-3M) was 6.52 µM (inactive) and the GI50 (MCF7) was 6.7 µM (inactive). For the same compound, the GI50 (SK-OV-3) was 32.3 µM (inactive), the GI50 (EKVX) was 15.7 µM (inactive) and the GI50 (SF-295) was 32.8 µM (inactive). For the same compound, the GI50 (SR) was 1.16 µM (inactive), the GI50 (HT-29) was 4.91 µM (inactive) and the GI50 (MOLT-4) was 4.26 µM (inactive). For the same compound, the GI50 (ACHN) was 2.34 µM (inactive), the GI50 (SN12C) was 6.18 µM (inactive) and the GI50 (A549) was 18.7 µM (inactive). For the same compound, the GI50 (HCT-116) was 1.97 µM (inactive), the GI50 (UACC-62) was 12 µM (inactive) and the GI50 (LOX IMVI) was 2.84 µM (inactive). The GI50 (T47D) was 1.03 µM (active), the GI50 (OVCAR-4) was 1.58 µM (inactive) and the GI50 (IGROV-1) was 7.85 µM (inactive). For the same compound, the GI50 (SK-MEL-2) was 6.12 µM (inactive), the GI50 (HCT-15) was 2.28 µM and the GI50 (CCRF-CEM) was 0.34 µM (active). The GI50 (NCI-H226) was 1.7 µM (inactive), the GI50 (SNB-75) was 11.5 µM (inactive) and the GI50 (SK-MEL-5) was 13.4 µM (inactive). For the same compound, the GI50 (KM12) was 19.1 µM (inactive), the GI50 (U-251) was 5.66 µM (inactive) and the GI50 (NCI-H460) was 17.7 µM (inactive). For the same compound, the GI50 (SNB-19) was 34 µM (inactive), the GI50 (K562) was 1.43 µM (inactive) and the GI50 (NCI/ADR-RES) was 6.87 µM (inactive). The GI50 (PC-3) was 5.28 µM (inactive), the GI50 (TK-10) was 3.03 µM (inactive) and the GI50 (MDA-N) was 5.79 µM (inactive). For the same compound, the GI50 (786-0) was 4.44 µM (inactive), the GI50 (M14) was 5.94 µM (inactive) and the GI50 (OVCAR-5) was 6.7 µM (inactive). The GI50 (MDA-MB-435) was 5.94 µM (inactive).
With `COc1ccc(C(=O)c2ccc(-n3c4ccccc4c4ccc5c(c43)C(=O)C=CC5=O)cc2)cc1` the GI50 (NCI-H23) was 1.7 µM (inactive), the GI50 (NCI-H522) was 0.217 µM (active) and the GI50 (RPMI-8226) was 0.794 µM (active). The GI50 (UACC-257) was 2.54 µM (inactive), the GI50 (COLO 205) was 2.89 µM (inactive) and the GI50 (MDA-MB-231) was 1.94 µM (inactive). The GI50 (BT-549) was 3.21 µM (inactive), the GI50 (RXF 393) was 0.845 µM (active) and the GI50 (HCC 2998) was 5.61 µM (inactive). The GI50 (SW-620) was 1 µM (active), the GI50 (SK-MEL-28) was 2.99 µM (inactive) and the GI50 (UO-31) was 0.52 µM (active). The GI50 (HOP-62) was 12.5 µM (inactive), the GI50 (A498) was 1.58 µM (inactive) and the GI50 (OVCAR-8) was 1.81 µM (inactive). For the same compound, the GI50 (SF-539) was 2.61 µM (inactive), the GI50 (HL-60) was 0.495 µM (active) and the GI50 (SF-268) was 0.647 µM (active). For the same compound, the GI50 (HOP-92) was 1.99 µM (inactive), the GI50 (DU-145) was 3.1 µM (inactive) and the GI50 (Hs-578T) was 1.69 µM (inactive). The GI50 (OVCAR-3) was 1.14 µM (inactive), the GI50 (MCF7) was 0.855 µM (active) and the GI50 (SK-OV-3) was 13.7 µM (inactive). For the same compound, the GI50 (EKVX) was 1.86 µM (inactive), the GI50 (SF-295) was 5.43 µM (inactive) and the GI50 (SR) was 1.32 µM (inactive). For the same compound, the GI50 (HT-29) was 1.06 µM (active), the GI50 (MOLT-4) was 0.348 µM (active) and the GI50 (ACHN) was 0.8 µM (active). The GI50 (SN12C) was 1.45 µM (inactive), the GI50 (A549) was 3.17 µM (inactive) and the GI50 (HCT-116) was 0.92 µM (active). For the same compound, the GI50 (UACC-62) was 3.03 µM (inactive), the GI50 (LOX IMVI) was 1.25 µM (inactive) and the GI50 (T47D) was 1.06 µM (active). The GI50 (OVCAR-4) was 2.55 µM (inactive), the GI50 (IGROV-1) was 2.61 µM (inactive) and the GI50 (SK-MEL-2) was 3.88 µM (inactive). The GI50 (HCT-15) was 1.9 µM, the GI50 (CCRF-CEM) was 0.367 µM (active) and the GI50 (NCI-H226) was 17.3 µM (inactive). For the same compound, the GI50 (SNB-75) was 3.66 µM (inactive), the GI50 (SK-MEL-5) was 4.27 µM (inactive) and the GI50 (KM12) was 3.68 µM (inactive). For the same compound, the GI50 (U-251) was 1.69 µM (inactive), the GI50 (NCI-H460) was 4.61 µM (inactive) and the GI50 (SNB-19) was 4.19 µM (inactive). The GI50 (K562) was 0.676 µM (active), the GI50 (NCI/ADR-RES) was 2.62 µM (inactive) and the GI50 (PC-3) was 1.5 µM (inactive). For the same compound, the GI50 (TK-10) was 1.43 µM (inactive), the GI50 (MDA-N) was 2.72 µM (inactive) and the GI50 (786-0) was 0.586 µM (active). For the same compound, the GI50 (CAKI-1) was 0.164 µM (active), the GI50 (M14) was 2.53 µM (inactive) and the GI50 (OVCAR-5) was 19.5 µM (inactive). For the same compound, the GI50 (MDA-MB-435) was 1.39 µM (inactive).
